The results in this text go back to patent US20050004007A1, “Promotion of adoptosis in cancer cells by co-administration of cyclin dependent kinase inhibitiors and cellular differentiation agents” (priority 2000, published 2005).

Holding throughout (type): cell-based, human
Test [1] concerns U937 cells. As to the kind of experiment: cell cycle analysis (propidium iodide, flow cytometry). The method, then: Cell Cycle Analysis. Following drug treatment, cells were pelleted by centrifugation at 500 g×6 min, and resuspended in 70% ethanol. The cells were incubated on ice for at least 1 h and resuspended in 1 ml cell cycle buffer (0.38 mM Na-Citrate, 0.5 mg/ml RNase A, and 0.01 mg/ml propidium iodide) at a concentration of 10×10^5 cells/ml, stored in the dark at 4 C until analysis (24 h), using a Becton-Dickinson FACScan flow cytometer and Verity Winlist software (Verity Software, Topsham, Me.).
Background: A flow cytometer gives signals particle by particle.

The subject of test [2] is Bcl-2. As to the kind of experiment: Western analysis of Bcl-2 cleavage in U937 cells. Particulars: SB 1 mM, FP 100 nM, 12 and 24 hr. On the procedure:
(§1) Alternatively, whole cell-pellets were washed twice in PBS, resuspended in PBS, and lysed by the addition of I volume of loading buffer. Lysates were boiled for 10 min, centrifuged at 12,800 g for 5 min and quantified using Coomassie protein assay reagent (Pierce, Rockfold, Ill.). 25 μg of total proteins per point were separated by SDS-PAGE and electro-blotted to nitrocellulose. The blots were blocked in 5% non-fat milk in PBS-T and probed for 1 h with the appropriate dilution of primary antibody. Blots were washed 3×10 min in PBS-T and then incubated with a 1:2000 dilution of peroxidase-conjugated secondary antibody for 1 h at room temperature. Blots were again washed 3×10 min in PBS-T and then developed by enhanced chemiluminesence. Where indicated, blots were stripped and re-probed with antibodies directed against actin. […]

The test system of test [3] is Mcl-1. Kind of test: Western analysis of Mcl-1 in U937 cells. To be noted: 100 nM FP, 1 mM SB, 12 and 24 hours. The method, then: as §1
In test [4] the test system is U937 cells. Kind of test: cytochrome c release into the cytosol. To be noted: FP 100 nM; for cytochrome c release: SB 1 mM, alone from 1 hr, both drugs ≧6 hr. On the procedure: Cytochrome c release. The assay for cytochrome c release was performed as previously described by Single et al. [1998] with modifications. At designated times following drug treatment, 4×10^6 cells were washed with PBS and resuspended in 50 μl of assay buffer (75 mM NaCl, 1 mM NaH2P0^4, 8 mM Na2HP0^4, 1 mM EDTA, 250 mM sucrose) containing digitonin (700 μg/ml). Three minutes following addition of digitonin assay buffer, cells were pelleted by centrifugation. The supernatants were transferred to tubes containing 2× Laemmli buffer (50 μl) and boiled for 5 minutes. Proteins were separated by SDS-PAGE as described above.
Analysis of cytosolic cytochrome c. A previously described technique was employed.^32 After treatment, cells (5×10^7/condition) were harvested by centrifugation at 600 g for 10 min at 4° C. The S-100, or cytosolic fraction, was prepared as described with minor modifications. Cell pellets were washed once with ice-cold phosphate-buffered saline and resuspended in five volumes of buffer A (20 mM Hepes-KOH, pH 7.5, 10 mM KCl, 1.5 mM MgCl2, 1 mM sodium EDTA, 1 mM sodium EGTA, 1 mM dithiothreitol, 0.1 mM phenylmethlysufonyl fluoride, and 250 mM sucrose; all Sigma. After chilling for 30 min on ice, the cells were disrupted by 15 strokes of a Potter-Elvehjem (PTFE-pestle) homogenizer. The homogenate was then centrifuged twice to remove unbroken cells and nuclei (3000 g for 10 min at 4° C.). The resulting supernatant was further centrifuged at 100,000 g for 1 h at 4° C., and the supernatants, designated as S-100 fractions, were immediately subjected to Western analysis as described above. For each condition, 25 μg of the S-100 fraction was loaded on the gel, and probed with the corresponding antibody.

The test system of test [5] is p21WAF1/CIP1. As to the kind of experiment: Western analysis of p21WAF1/CIP1 expression in U937 cells. To be noted: for p21WAF1/CIP1 levels: 1 mM SB, 100 nM FP, 1-24 hr. On the procedure:
Western analysis. Equal quantities of protein (15 μg/condition for MAPK, 40 μg/condition for cytochrome c, or 25 μg/condition) were separated by SDS-PAGE [underphosporylated pRB (7.5%), poly(ADP-ribose)polymerase or PARP (8.0%), p44/p42 MAPK (10%), p21, p27, procaspase 3 (12%), and cytochrome c (15%)] and electroblotted onto nitrocellulose. Western analysis of p44/p42 MAPK protein was performed according to the manufacturer's instructions (New England Biolabs); otherwise, studies were performed as previously described [Wang et al, 1998]. Briefly, U937 cells (5×10^6) were pelleted by centrifugation, resuspended in 50 μl PBS, lysed by the addition of 2× Laemmli buffer and boiled for 5 min. Proteins were quantified with Coomassie protein assay reagent. Blots were blocked in PBS-T/5% milk, washed twice with PBS-T, and incubated overnight at 4° C. with the appropriate primary antibody. The blots were washed with PBS-T and incubated with a horseradish-peroxidase conjugated secondary antibody diluted appropriately in PBS-T/5% mill. Following incubation, blots were developed by enhanced chemiluminescence exposure to Kodak X-OMAT film (Eastman Kodak Co., Rochester, N.Y.) and reprobed with antibodies directed against actin to control for equal loading of protein.
Alternatively, whole cell-pellets were washed twice in PBS, resuspended in PBS, and lysed by the addition of I volume of loading buffer. Lysates were boiled for 10 min, centrifuged at 12,800 g for 5 min and quantified using Coomassie protein assay reagent (Pierce, Rockfold, Ill.). 25 μg of total proteins per point were separated by SDS-PAGE and electro-blotted to nitrocellulose. The blots were blocked in 5% non-fat milk in PBS-T and probed for 1 h with the appropriate dilution of primary antibody. Blots were washed 3×10 min in PBS-T and then incubated with a 1:2000 dilution of peroxidase-conjugated secondary antibody for 1 h at room temperature. Blots were again washed 3×10 min in PBS-T and then developed by enhanced chemiluminesence. Where indicated, blots were stripped and re-probed with antibodies directed against actin.
Primary antibodies for both p21^WAF1/CIP1 and p27^KIP1 (Transduction Laboratories, Lexington, Ky.) were used in a 1:1000 dilution; PARP (1:1000; Oncogene Research Products, Cambridge, Mass.); pro-caspase 3 (1:1000; Transduction Laboratories); cytochrome c (1:2000; Pharmingen); bcl-2 (1:2000; DAKO, Denmark); bax (1:1000; Santa Cruz Biotechnology, Inc., Santa Cruz, Calif.); bid (1:1000; Cell Signaling, Beverly, Mass.); XIAP (1:1000; Cell Signaling); Mcl-1 (1:1000; Pharmingen); bak (1:1000; Calbiochem); c-Myc (1:1000; Pharmingen, San Diego, Calif.); actin (1:2000; Sigma Chemicals, St. Louis, Mo.); cyclins-D1, -A and -E (1:1000; Pharmingen); pRb, underP-pRb, pRb-CDK2 and pRb-CDK4 (all 1:1000; Pharmingen); Ac-H3 and Ac-H4 (both 1:1000; Upstate Biotechnology, Lake Placid, N.Y.); E2F-1 (Upstate Biotechnology). Secondary antibodies conjugated to horseradish peroxidase were obtained from Kirkegaard and Perry Laboratories, Inc. (Gaithersburg, Md.). Coomassie protein assay reagent was purchased from Pierce (Rockford, Ill.), and an enhanced chemiluminescence kit was obtained from New England Nuclear (Boston, Mass.). The pan-caspase inhibitor BOC-D-fmk and the caspase 8 inhibitor Z-IETD-fmk were purchased from Enzyme System Products (Livermore, Calif.) All other chemicals or reagents were purchased from Sigma.

On to `CCCC(=O)[O-].[Na+]` [SB, sodium butyrate], for which the “percentage of cells arresting in G0/G1” value in test [1] (24 h, 1 mM SB) was 48.1%; in test [1] (48 h, 1 mM SB or 100 nM FP) it was 81.6%. For the same compound, the “cleavage of Bcl-2 (rapidly migrating species)” value in test [2] is recorded as “faintly discerned”. Further, the “levels of Mcl-1” value in test [3] is “minimal effects”. In addition, in test [4], the cytochrome c release entry is recorded as “increased modestly”. For the same compound, the p21WAF1/CIP1 levels entry in test [5] is recorded as “time-dependent increase”.
For `CN1CC[C@H](c2c(O)cc(O)c3c(=O)cc(-c4ccccc4Cl)oc23)[C@H](O)C1` [FP, Flavopiridol], the cell cycle distribution entry in test [1] (24 h after administration of SAHA, FP or both) is given as “increase in the G0/G1 population”. Further, the “percentage of cells arresting in G0/G1” value in test [1] (48 h, 1 mM SB or 100 nM FP) was roughly 53%. For the same compound, the “cleavage of Bcl-2 (rapidly migrating species)” value in test [2] was “faintly discerned”. The “levels of Mcl-1” value in test [3] is on record as “reductions in levels of Mcl-1”. Further, the “release of cytochrome c into the cytosol” value in test [4] (PMA 10 nM, 6 h) is “some effect”. The cytochrome c release result in test [4] is “increased modestly”. The p21WAF1/CIP1 expression result in test [5] (10 nM PMA, FP 50-100 nM, 24 h) is given as “no effect”. Further, in test [5], the p21WAF1/CIP1 levels result is recorded as “did not modify”.
